System: cyprids of barnacle B. amphitrite
Assay: Anti-larval settlement bioassay (antifouling activity and larval toxicity)
Type: in vivo
Settings: for LC50/EC50 ratio (therapeutic ratio): B. amphitrite cyprids, ratio >15 considered non-toxic; for LC50 / EC50: cyprids of B. amphitrite, 48 h at 28 °C; for LC50: concentration where 50% of larvae were dead; for EC50: concentration where 50% of larvae were inhibited to settle vs negative control, read-out: EC50 (larval settlement inhibition); for inhibition of larval settlement in preliminary screening: B. amphitrite, at 25.0 μg ml^−1
Method: The newly released nauplii were screened with the aperture of 90 μm. The newly released nauplii were raised in filtered seawater (FSW) at 28 °C with mild aeration and fed with Chaetoceros gracilis Schutt at 1 × 10^6 cells ml^−1. The nauplius larvae transformed into cyprids (ready to attach and metamorphose) after 3.5 days. Newly transformed cyprids were kept in filtered seawater at 4 °C overnight before being used in the anti-larval settlement bioassay.
The antifouling activity was evaluated as larval settlement inhibition against the cyprids of barnacle B. amphitrite using 24-well polystyrene plates (Nunc, Naperville, CA, USA). Each compound was dissolved in a stock solution of DMSO with the concentration of 50 mg ml^−1, and then diluted 1000 times with FSW to 50 μg ml^−1. The compound was further transferred into FSW to make up the following test solution with the concentrations ranging from 25 to 0.50 μg ml^−1. One millilitre of the test solution and 16–20 larvae were allocated to each well of the 24-well plate. Each concentration had three replicate wells. The plates were cultivated in darkness for 48 h at 28 °C. The effects of the test compounds against the larvae settlement were determined by examining the plates under a dissecting microscope to check for (1) settled larvae (attached and metamorphosed), (2) swimming larvae, as well as (3) any possible toxic effects of the treatments (dead and paralyzed). The number of the settled larvae was expressed as a percentage of the total number of larvae per well. Each compound was tested by triplicate experiments using three different batches of larvae.
The EC50 and LC50 values of each compound were calculated according to the records of anti-larval settlement experiments. […] Then a concentration–response curve was plotted and a tread line was set up.

**Q.** Which “LC50/EC50 ratio (therapeutic ratio)” value does the source give for “1-Formyl-4-methyl-7-isopropylazulene [compound 17]” here?
**A.** >16.1

**Q.** And the LC50?
**A.** > 236 µM

**Q.** What about the EC50 of the same molecule?
**A.** 14.7 µM

**Q.** Which results are given for `CC(C)C(C)CCC(C)C1CCC(C2=CC(O)C3CC(O)CCC3(C)C2=O)C1(C)CCO` (mixture of isomers) [compound 24, (24R)-and(24S)-3β,6α,11-Trihydroxy-methyl-9,11-seco-5α-cholest-7-en-9-one]?
**A.** LC50: > 112 µM; EC50: > 55.8 µM

**Q.** With `CC1=CC(=O)c2c1cc(C(C)C)c(C=O)c2C` [compound 19, 3,8-Dimethyl-5-isopropyl-6-formylindenone] as the molecule, how does the LC50 read?
**A.** > 219 µM

**Q.** And the EC50?
**A.** > 110 µM

**Q.** Which LC50 does the source give for `CC1=CC(=O)c2c(C)cc(C(=O)C(C)C)cc21` [compound 20, Ochracenoid B] here?
**A.** > 219 µM

**Q.** And the EC50?
**A.** > 110 µM

**Q.** `CC(C)CCC(C)C1CCC(C2=CC(O)C3CC(O)CCC3(C)C2=O)C1(C)CCO` (stereo not drawn) [compound 23, 3β,6α,11-Trihydroxy-24-nor-9,11-seco-5α-cholest-7-en-9-one] was tested. Which “inhibition of larval settlement in preliminary screening” value (from here on “inhibition of larval settlement”) did it give?
**A.** completely inhibited

**Q.** And the LC50?
**A.** 59.5 µM

**Q.** What about the EC50 of the same molecule?
**A.** 10.7 µM

**Q.** `CC(C)C=CC(C)C1CCC(C2=CC(O)C3CC(O)CCC3(C)C2=O)C1(C)CCO` (stereo not drawn) [compound 25, (22E)-3β,6α,11-Trihydroxy-24-nor-9,11-seco-5α-cholesta-7,22-dien-9-one] was tested. Which “inhibition of larval settlement” value did it give?
**A.** completely inhibited

**Q.** What about the LC50 of the same molecule?
**A.** 59.8 µM

**Q.** And the EC50?
**A.** 29.9 µM

**Q.** For `CC(C)CCCC(C)C1CCC(C2=CC(O)C3CC(O)CCC3(C)C2=O)C1(C)CCO` (stereo not drawn) [compound 26, 3β,6α,11-Trihydroxy-9,11-seco-5α-cholest-7-en-9-one], which “inhibition of larval settlement” value is on record?
**A.** completely inhibited

**Q.** What about the LC50 of the same molecule?
**A.** 57.6 µM

**Q.** And the EC50?
**A.** 28.6 µM

**Q.** Which results are given for `C=C(CCC(C)C1CCC(C2=CC(O)C3CC(O)CCC3(C)C2=O)C1(C)CCO)C(C)C` (stereo not drawn) [compound 27, 3β,6α,11-Trihydroxy-9,11-seco-5α-cholesta-7,24(28)-dien-9-one]?
**A.** LC50: > 56.1 µM; EC50: > 56.1 µM

**Q.** How did the “LC50/EC50 ratio (therapeutic ratio)” value turn out when `CC(C)C(C)C=CC(C)C1CCC(C2=CC(O)C3CC(O)CCC3(C)C2=O)C1(C)CCO` [compound 28, (22E,24R)-3β,6α,11-trihydroxy-24-Methyl-9,11-seco-5α-cholesta-7,22-dien-9-one] was run?
**A.** >1.25

**Q.** And the LC50?
**A.** > 56.1 µM

**Q.** What about the EC50 of the same molecule?
**A.** 44.8 µM

**Q.** Which results are given for `CC(C)CC=CC(C)C1CCC(C2=CC(O)C3CC(O)CCC3(C)C2=O)C1(C)CCO` (stereo not drawn) [compound 29, (22E)-3β,6α,11-Trihydroxy-9,11-seco-5α-cholesta-7,22-dien-9-one]?
**A.** LC50: 57.9 µM; EC50: 14.7 µM

**Q.** How did the “LC50/EC50 ratio (therapeutic ratio)” value turn out when `CC(=O)OCCC1(C)C(C2=CC(OC(C)=O)C3CC(O)CCC3(C)C2=O)CCC1C(C)C=CCC(C)C` (stereo not drawn) [compound 30, (22E)-6,11-Diacetoxy-3-hydroxy-9,11-seco-5α-cholesta-7,22-dien-9-one] was run?
**A.** 16.1

**Q.** And the LC50?
**A.** 96.8 µM

**Q.** And the EC50?
**A.** 6.01 µM

**Q.** With `CC(=O)OCCC1(C)C(C2=CC(OC(C)=O)C3CC(OC(C)=O)CCC3(C)C2=O)CCC1C(C)C=CCC(C)C` (stereo not drawn) [compound 31, (22E)-3,6,11-Triacetoxy-9,11-seco-5α-cholesta-7,22-dien-9-one] as the molecule, how does the “LC50/EC50 ratio (therapeutic ratio)” value read?
**A.** 8.00

**Q.** What about the LC50 of the same molecule?
**A.** 96.8 µM

**Q.** What about the EC50 of the same molecule?
**A.** 12.1 µM

**Q.** `C[C@]12CCC[C@H](O1)c1c(cc3c(c1O)C(=O)c1c(O)cc(O)cc1C3=O)O2` [compound 32, Averufin] was tested. Which “LC50/EC50 ratio (therapeutic ratio)” value did it give?
**A.** >14.7

**Q.** And the LC50?
**A.** > 136 µM

**Q.** What about the EC50 of the same molecule?
**A.** 9.27 µM

**Q.** For `COc1cc(O)cc2c1C(=O)c1c(cc3c(c1O)[C@H]1O[C@](C)(CC[C@@H]1O)O3)C2=O` [compound 33, 8-O-methylnidurufin], which “LC50/EC50 ratio (therapeutic ratio)” value is on record?
**A.** >8.75

**Q.** And the LC50?
**A.** > 126 µM

**Q.** What about the EC50 of the same molecule?
**A.** 14.4 µM

**Q.** What does the source list for `C[C@]12CC[C@H](O)[C@H](O1)c1c(cc3c(c1O)C(=O)c1c(O)cc(O)cc1C3=O)O2` [compound 34, Nidurufin]?
**A.** LC50: > 130 µM; EC50: > 65.1 µM

**Q.** For `COc1cc(O)cc2c1C(=O)c1c(O)cc(CO)cc1C2=O` [compound 35, Questinol], which LC50 is on record?
**A.** > 167 µM

**Q.** And the EC50?
**A.** > 83.3 µM

**Q.** `COc1cc(O)cc2c1C(=O)c1c(O)cc(CO)c(O)c1C2=O` [compound 36, ω-Hydroxyrubrocristin] was tested. Which LC50 did it give?
**A.** > 158 µM

**Q.** What about the EC50 of the same molecule?
**A.** > 79.1 µM

— PMC5081312, “Antifouling phenyl ethers and other compounds from the invertebrates and their symbiotic fungi collected from the South China Sea” (AMB Express, 2016)
